Test results taken from patent US20090253709A1 (NATIONAL DEFENSE MEDICAL CENTER, priority 2008, published 2009).
Like-named read-outs stand apart in the source and are kept apart here.

Experiments:
hTERT expression = test: SEAP assay, H1299/PhTERT-driven SEAP system; format: cell-based, human; conditions: Homo sapiens
Description: The condition of the cells for selecting the telomerase inhibitor must be the cancer cells with telomerase activity. H1299 is a non-small cell lung cancer cell line with telomerase activity. The hTERT communication gene linked behind PhTERT which is located at the fifth chromosome of H1299 cell can be expressed; however, this expression is hard to detect. Therefore, the plasmid having the SEAP communication gene linked behind PhTERT was transfected into H1299 cells. Under the identical condition, after PhTERT was activated, the SEAP communication gene linked behind the plasmid was also activated. This gene could be detected by this analytic method while expressing.
If additionally added reagent can inhibit PhTERT, the linked SEAP communication gene will not be expressed, and the hTERT communication gene linked behind PhTERT at the fifth chromosome will not be expressed. […]
The cellular medium after the cellular incubation was transferred into the eppondorf tube, and the activity of endogeneous alkaline phosphatase was inactivated at 65° C. for 10 minutes. After centrification, the mixture was obtained by mixing 50 μl of the supernatant with the equal volume of the SEAP buffer. The mixture and the substrate (120 mM of p-nitrophenylphosphate) were preheated at 37° C. for 10 minutes respectively, and the mixture and the substrate were mixed at a ratio of 1:10 and reacted at 37° C. The absorbance of visible light at 405 nm was determined at the appropriate time intervals, and the enzymatic activity of SEAP was represented by the speed of the increasing absorbance at 405 nm.
The selection of telomerase inhibitors of the anthraquinone compounds provided in the present invention was performed by the H1299/PhTERT-driven SEAP system. SEAP is the communication gene in this drug selection model. The SEAP inhibition was shown as follows. The quantitative cellular medium obtained after the 24-hour drug-treatment and the identical inactivation was reacted with the quantitative SEAP substrate, and the absorbance at 405 nm was detected for 5 time intervals. Subsequently, the linear slope of absorbance to the measuring time was calculated, and the variance of absorbance at 405 nm per minute was represented and compared with the SEAP-producing result of drug-untreated H1299 cells. In addition, the influence of the cell-treated drug solution to the cellular proliferation and the drug toxicity to the cells were considered, and the cellular growth was evaluated by the MTT assay. The drug-treated cells were analyzed by the SEAP assay and the data analysis of MTT assay at the same time. Both results were compared so as to delete the influence of cell number or the activity to SEAP, and the dose-dependent phenomenon could be anticipated in the range of drug concentration designed by the laboratory.
In the preliminary selection, the highest concentration was 1000 μM, and 10-fold serial dilutions were done. Therefore, the final concentrations for treating cells were 1 μM, 10 μM and 100 μM, and the drug concentrations were repeated for 5 times. Since the chemically-synthetic drugs have colors thereon, the SEAP value of drug-treatment without cells was also determined to be the background value which was deducted while treating with the drugs. The candidate drug for inhibiting telomerase on the hTERT gene expression level was evaluated and anticipated.

telomerase = test: Telomeric repeat amplification protocol (TRAP); format: biochemical; conditions: compounds at 100, 10 and 1 μM; gel electrophoresis
LOX IMVI = test: In vitro cytotoxicity, Development Therapeutics Program; format: cell-based; conditions: melanoma, 1.0×10^−5 M
Description: (§1) From the in vitro experiments of the Development Therapeutics Program of the Cancer Research Institute, the United States, it was known that the synthetic heterocyclic anthraquinone derivatives of the present invention have different inhibition levels to the different cancer cell lines under the concentration of 1.0×10^−5 M. Please refer to Table 2, which is the result of in vitro cytotoxicity of 2,7-disubstituted anthraquinone derivatives of the present invention.

ACHN = test: as above; format: cell-based; conditions: renal cancer, 1.0×10^−5 M
Description: as §1

CAK1-1 = test: as above; format: cell-based; conditions: CAK1-1, renal cancer; 1.0×10^−5 M
Description: as §1

HT29 = test: as above; format: cell-based; conditions: HT29, colon cancer; 1.0×10^−5 M
Description: as §1

SK-OV-3 = test: as above; format: cell-based; conditions: SK-OV-3, ovarian cancer; 1.0×10^−5 M
Description: as §1

HOP-62 = test: as above; format: cell-based; conditions: HOP-62, non-small cell lung cancer; 1.0×10^−5 M
Description: as §1

NCl-H226 = test: as above; format: cell-based; conditions: NCl-H226, non-small cell lung cancer; 1.0×10^−5 M
Description: as §1

A498 = test: as above; format: cell-based; conditions: A498, renal cancer; 1.0×10^−5 M
Description: as §1

EKVX = test: as above; format: cell-based; conditions: non-small cell lung cancer, 1.0×10^−5 M
Description: as §1

M14 = test: as above; format: cell-based; conditions: M14, melanoma; 1.0×10^−5 M
Description: as §1

COLO 205 = test: as above; format: cell-based; conditions: COLO 205, colon cancer; 1.0×10^−5 M
Description: as §1

DU-145 = test: as above; format: cell-based; conditions: DU-145, prostate cancer; 1.0×10^−5 M
Description: as §1

SR = test: as above; format: cell-based; conditions: leukemia, 1.0×10^−5 M
Description: as §1

HCT-15 = test: as above; format: cell-based; conditions: HCT-15, colon cancer; 1.0×10^−5 M
Description: as §1

HS 578T = test: as above; format: cell-based; conditions: breast cancer, 1.0×10^−5 M
Description: as §1

UACC-257 = test: as above; format: cell-based; conditions: UACC-257, melanoma; 1.0×10^−5 M
Description: as §1

NCl-H522 = test: as above; format: cell-based; conditions: NCl-H522, non-small cell lung cancer; 1.0×10^−5 M
Description: as §1

MDA-MB-231/ATCC = test: as above; format: cell-based; conditions: breast cancer, 1.0×10^−5 M
Description: as §1

NCI-H23 = test: as above; format: cell-based; conditions: NCI-H23, non-small cell lung cancer; 1.0×10^−5 M
Description: as §1

MCF7 = test: as above; format: cell-based; conditions: MCF7, breast cancer; 1.0×10^−5 M
Description: as §1

[1] = NCI-H1299, read-out: SEAP (Inhibition μM ± SD)
[2] = NCI-H1299, H1299, compound concentration 1 μM, read-out: SEAP (Inhibition μM ± SD)
[3] = NCI-H1299, H1299, compound concentration 10 μM, read-out: SEAP (Inhibition μM ± SD)
[4] = NCI-H1299, H1299, compound concentration 100 μM, read-out: SEAP (Inhibition μM ± SD)

Row | Structure (SMILES) | Cellular growth rate (%) (LOX IMVI) | Cellular growth rate (%) (ACHN) | Cellular growth rate (%) (CAK1-1) | Cellular growth rate (%) (HT29) | Cellular growth rate (%) (SK-OV-3) | Cellular growth rate (%) (HOP-62) | Cellular growth rate (%) (NCl-H226) | Cellular growth rate (%) (A498) | Cellular growth rate (%) (EKVX) | Cellular growth rate (%) (M14) | Cellular growth rate (%) (COLO 205) | Cellular growth rate (%) (DU-145) | Cellular growth rate (%) (SR) | Cellular growth rate (%) (HCT-15) | Cellular growth rate (%) (HS 578T) | Cellular growth rate (%) (UACC-257) | Cellular growth rate (%) (NCl-H522) | Cellular growth rate (%) (MDA-MB-231/ATCC) | Cellular growth rate (%) (NCI-H23) | Cellular growth rate (%) (MCF7) | further results
1 | CN(C)CC(=O)Nc1ccc2c(c1)C(=O)c1cc(NC(=O)CN(C)C)ccc1C2=O [Compound 8, 2,7-Bis[2-(dimethylamino)acetamido]anthraquinone] | −52.34 | 66.43 | 59.26 | 11.73 | 70.26 | 28.97 | 89.14 | −6.39 | 102.30 | 75.04 | −73.57 | 78.68 | −46.45 | 16.26 | −6.11 | −1.84 | 61.82 | 4.49 | 51.78 | 7.92 | activity at 1 µM (hTERT expression; [1]): 87 ± 12%; activity at 10 µM (hTERT expression; [1]): 40 ± 20%; activity at 100 µM (hTERT expression; [1]): 21 ± 14%; telomerase inhibition effect in TRAP assay (telomerase): telomerase inhibition effect
2 | CCN(CC)CCC(=O)Nc1ccc2c(c1)C(=O)c1cc(NC(=O)CCN(CC)CC)ccc1C2=O [Compound 16, 2,7-Bis[3-(diethylamino)propionamido]anthraquinone] | 3.39 | 11.09 | 3.27 | 3.30 | 44.02 | 11.65 | 49.89 | −38.76 | 59.99 | 62.79 | −49.69 | 10.20 | −0.39 | 17.42 | −23.77 | −14.46 | 27.98 | 31.32 | 30.34 | 9.34 | activity at 1 µM (hTERT expression; [2]): 76 ± 19%; activity at 10 µM (hTERT expression; [3]): 35 ± 17%; activity at 100 µM (hTERT expression; [4]): 26 ± 11%; telomerase inhibition effect in TRAP assay (telomerase): telomerase inhibition effect
3 | CC(=O)Nc1ccc2c(c1)C(=O)c1cc(NC(C)=O)ccc1C2=O [Compound 26, 2,7-Bis(acetamido)anthraquinone] | 99.05 | 96.93 | 105.10 | 107.23 | 101.12 | 110.60 | 104.51 | 115.60 | 95.28 | 105.11 | 119.85 | 116.79 | 3.61 | 93.93 | 133.05 | 26.97 | 93.56 | 103.99 | 94.24 | 96.90 | activity at 1 µM (hTERT expression; [1]): 97 ± 10%; activity at 10 µM (hTERT expression; [1]): 87 ± 14%; activity at 100 µM (hTERT expression; [1]): 74 ± 18%; telomerase inhibition effect in TRAP assay (telomerase): telomerase inhibition effect
4 | O=C1c2ccc(NC(=O)C3CC3)cc2C(=O)c2cc(NC(=O)C3CC3)ccc21 [Compound 32, 2,7-Bis(cyclopropanecarbonamido)anthraquinone] | 90.27 | 86.70 | 88.43 | 106.26 | 93.16 | 91.64 | 100.60 | 92.35 | 94.31 | 98.89 | 91.92 | 98.83 | 1.69 | 86.35 | 118.90 | 107.63 | 89.41 | 97.05 | 95.85 | 77.38 | activity at 1 µM (hTERT expression; [2]): 80 ± 1%; activity at 10 µM (hTERT expression; [3]): 81 ± 1%; activity at 100 µM (hTERT expression; [4]): 81 ± 1%
